Columns and labels:
[1] = ionization degrees of sulfonamides in the donor solution (calculated); type: physicochemical; details: initial pH 5.64; calculated using equations in ref 39
[2] = octanol-water shake experiment for logKOW and logDOW; type: physicochemical; details: for logD: n-octanol/ultrapure water pH 5.6, room temperature, read-out: LogD OW pH 5.6 (exp); for LogK OW (exp): n-octanol/ultrapure water, room temperature
[3] = set-up: method as in PMID 22579461; details: cited from earlier work
[4] = stability (recovery) of ionic liquids inside the PASSIL dosimeter; type: physicochemical; details: PES membranes, 14-day passive sampling, 20 °C; from IL mass before and after
Experimental: Passive sampling experiments were conducted analogously to previous studies. The passive dosimeter was made of plexiglass and contained two polyethersulfone (PES) membranes with their inner sides covered with the receiving phase—ionic liquid (separately for each of the seven tested ILs) of a total mass equal to 200 mg. Nylon (Phenomenex) and Teflon (Merck) membranes were also tested. The donor phase was 100 mL of water solution with an initial sulfonamide concentration of 2 μg mL^−1. The experimental setup was kept away from light radiation and at a constant temperature (20 °C). Each extraction lasted 14 days and the samples (1 mL) of the donor solution were collected every 2 days. The solution was stirred using a magnetic stirrer (1000 rpm), which was not renewed. After the experiment, the receiving phase was dissolved using 50 mL of acetonitrile. All the obtained samples (both from the donor and receiving phases) were analyzed by HPLC with a diode-array detector (DAD, Schimadzu, 272 nm). The analysis was performed using a Gemini 5-μm C18 column (Phenomenex). The injection volume was 10 μL. The flow rate was 1.5 mL min^−1. Acetonitrile (ACN) was used as the organic component of the mobile phase, and the aqueous component was an acetate buffer (5 mmol L^−1 CH3COONH4, pH = 4) with 5% of ACN. The mobile phase gradient was applied. The recovery of the receiving phase, the extraction efficiency, and the sampling rate (for [P666-14][N(CN)2]) were calculated for each analyte according to the equations presented in [30]. Moreover, micrographs using a HITACHI S-3400N scanning electron microscope (SEM) were taken to study the morphological appearance of the membranes covered with an ionic liquid [P666-14][N(CN)2].
The basic parameter of an applied ionic liquid is its physical stability inside the homemade dosimeter expressed by the IL recovery (%) calculated from the difference between ionic liquid masses before and after the passive sampling. The highest recovery (more than 90%) of ionic liquids was achieved by phosphonium-cation-based ILs and PES membranes (Fig. 3). […]

Compound | α2 ionization degree [1] | α3 ionization degree (negatively charged form) [1] | logD [2] | LogK OW (exp) [2] | pKa2 [3] | pKa3 [3] | IL recovery [4]
Nc1ccc(S(=O)(=O)Nc2ccc(Cl)nn2)cc1 [SCP, sulfachloropyridazine] | 100.0% | 58.0% | 0 | 0.36 | 2.2 | 5.5 | 
COc1cc(NS(=O)(=O)c2ccc(N)cc2)nc(OC)n1 [SDX, sulfadimethoxine] | 99.9% | 35.5% |  |  | 2.5 | 5.9 | 
Nc1ccc(S(=O)(=O)Nc2ncccn2)cc1 [SDZ, sulfadiazine] |  |  |  |  | 1.8 |  | 
Cc1nnc(NS(=O)(=O)c2ccc(N)cc2)s1 [SMT, sulfamethiazole] | 100.0% | 58.0% | -0.34 | 0.01 | 1.8 | 5.5 | 
Cc1ccnc(NS(=O)(=O)c2ccc(N)cc2)n1 [SMZ, sulfamerazine] | 100.0% | 6.5% | 0.16 | 0.19 | 1.8 | 6.8 | 
Nc1ccc(S(=O)(=O)Nc2ccccn2)cc1 [SPD, sulfapyridine] | 99.9% |  | 0.04 | 0.04 | 2.4 | 8.2 | 
Nc1ccc(S(=O)(=O)Nc2nccs2)cc1 [STZ, sulfathiazole] | 100.0% | 3.4% | -0.17 | −0.16 | 2.1 | 7.1 | 
CCCCCCCCCCCCCC[P+](CCCCCC)(CCCCCC)CCCCCC.FC(F)(F)C(F)(F)[P-](F)(F)(F)(C(F)(F)C(F)(F)F)C(F)(F)C(F)(F)F [[P666-14][(C2F5)3PF3], trihexyl(tetradecyl)phosphonium tri(pentafluoroethyl)trifluorophosphate] |  |  |  |  |  |  | 98.5%
CCCCCCCCCCCCCC[P+](CCCCCC)(CCCCCC)CCCCCC.N#C[N-]C#N [[P666-14][N(CN)2], trihexyl(tetradecyl)phosphonium dicyanamide] |  |  |  |  |  |  | 92.4%
CCCCCCCCCCCCCC[P+](CCCCCC)(CCCCCC)CCCCCC.O=S(=O)([N-]S(=O)(=O)C(F)(F)F)C(F)(F)F [[P666-14][TFN], trihexyl(tetradecyl)phosphonium bis(trifluoromethylsulfonyl)imide] |  |  |  |  |  |  | 98.9%
